Reference: ChEMBL document CHEMBL3045772, “Amide derivatives of [6-acyl-2-benzothiazolinon-3-yl] acetic acids as potential analgesic and anti-inflammatory compounds” (Med Chem Res, 2010)
The source made the active and inactive calls. The calls are words filed in the database; no cut-off is given here.

How the values were obtained:
[1] = molecular target: Prostaglandin G/H synthase 1 (Homo sapiens) (UniProt P23219); conditions: Blood, at 10 µM;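 further: human whole blood assay, COX-1 activity read out as TXB2 level by enzyme immunoassay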
Description: Inhibition of cyclooxygenase-1 in Homo sapiens (human) whole blood assessed as TXB2 level at 10 uM by EIA

Mus musculus [2] = test: Gastrointestinal toxicity in Mus musculus Swiss albino (mouse) assessed as ratio of ulcer at 100 mg/kg, po measured after 2 hr; format: organism-based; design: dose 100 mg/kg, route oral; conditions: in vivo
Mus musculus [3] = test: Anti-inflammatory activity in Mus musculus Swiss albino (mouse) assessed as inhibition of carrageenan-induced edema at 100 mg/kg, po pretreated 60 min before carrageenan-challenge measured after 270 min; format: functional
[4] = molecular target: T1, Polyunsaturated fatty acid 5-lipoxygenase (Homo sapiens) (UniProt P09917); test: Inhibition of 5-LOX (unknown origin) at 10 uM
T1 sequence (whole entry): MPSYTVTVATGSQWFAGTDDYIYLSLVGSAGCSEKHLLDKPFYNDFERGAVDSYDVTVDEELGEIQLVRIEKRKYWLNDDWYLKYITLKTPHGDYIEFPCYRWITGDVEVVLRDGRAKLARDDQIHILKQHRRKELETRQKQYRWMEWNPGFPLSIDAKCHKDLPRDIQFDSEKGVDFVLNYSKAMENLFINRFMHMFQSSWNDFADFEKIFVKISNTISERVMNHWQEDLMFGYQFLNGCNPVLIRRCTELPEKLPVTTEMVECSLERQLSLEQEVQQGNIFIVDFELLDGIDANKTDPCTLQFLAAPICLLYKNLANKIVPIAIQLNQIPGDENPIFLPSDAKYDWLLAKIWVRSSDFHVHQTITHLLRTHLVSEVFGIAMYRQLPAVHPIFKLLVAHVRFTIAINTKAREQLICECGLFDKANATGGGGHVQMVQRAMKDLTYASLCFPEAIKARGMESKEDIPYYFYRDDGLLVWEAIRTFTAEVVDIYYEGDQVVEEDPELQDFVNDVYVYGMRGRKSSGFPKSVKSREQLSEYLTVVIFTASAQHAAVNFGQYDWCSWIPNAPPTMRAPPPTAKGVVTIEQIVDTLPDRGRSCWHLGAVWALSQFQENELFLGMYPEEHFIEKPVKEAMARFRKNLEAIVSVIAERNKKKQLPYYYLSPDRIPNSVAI

Mus musculus [5] = test: Analgesic activity in Mus musculus Swiss albino (mouse) assessed as inhibition of p-benzoquinone-induced writhing at 100 mg/kg, po pretreated 60 min before p-benzoquinone challenge; format: functional
Mus musculus [6] = test: Anti-inflammatory activity in Mus musculus Swiss albino (mouse) assessed as inhibition of carrageenan-induced edema at 100 mg/kg, po pretreated 60 min before carrageenan-challenge measured after 360 min; format: functional
[7] = molecular target: T2, Prostaglandin G/H synthase 2 (Homo sapiens) (UniProt P35354); conditions: Blood, at 10 µM;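 further: human whole blood COX-2 activity read out as PGE2 level measured by enzyme immunoassay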
T2 sequence (whole entry): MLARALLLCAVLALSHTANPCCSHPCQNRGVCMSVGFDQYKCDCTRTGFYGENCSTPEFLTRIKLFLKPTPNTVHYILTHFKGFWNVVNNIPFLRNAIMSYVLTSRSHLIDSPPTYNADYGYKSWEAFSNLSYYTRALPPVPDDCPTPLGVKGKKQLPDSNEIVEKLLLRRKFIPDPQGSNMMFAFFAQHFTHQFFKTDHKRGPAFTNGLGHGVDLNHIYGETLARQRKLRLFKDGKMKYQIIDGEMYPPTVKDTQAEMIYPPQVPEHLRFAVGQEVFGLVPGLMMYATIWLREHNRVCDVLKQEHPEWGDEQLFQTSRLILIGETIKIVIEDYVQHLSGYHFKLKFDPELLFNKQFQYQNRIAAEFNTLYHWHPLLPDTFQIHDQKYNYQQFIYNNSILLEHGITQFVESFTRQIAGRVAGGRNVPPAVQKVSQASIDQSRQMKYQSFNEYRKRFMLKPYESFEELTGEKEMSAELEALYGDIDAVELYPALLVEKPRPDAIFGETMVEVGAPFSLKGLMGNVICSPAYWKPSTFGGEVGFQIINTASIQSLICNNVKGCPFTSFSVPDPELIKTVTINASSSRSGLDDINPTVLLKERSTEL
Description: Inhibition of cyclooxygenase-2 in Homo sapiens (human) whole blood assessed as PGE2 level at 10 uM by EIA

Mus musculus [8] = test: Anti-inflammatory activity in Mus musculus Swiss albino (mouse) assessed as inhibition of carrageenan-induced edema at 100 mg/kg, po pretreated 60 min before carrageenan-challenge measured after 180 min; format: functional
Mus musculus [9] = test: Anti-inflammatory activity in Mus musculus Swiss albino (mouse) assessed as inhibition of carrageenan-induced edema at 100 mg/kg, po pretreated 60 min before carrageenan-challenge measured after 90 min; format: functional

Prostaglandin G/H synthase 1 (Homo sapiens), sequence (P23219 whole entry): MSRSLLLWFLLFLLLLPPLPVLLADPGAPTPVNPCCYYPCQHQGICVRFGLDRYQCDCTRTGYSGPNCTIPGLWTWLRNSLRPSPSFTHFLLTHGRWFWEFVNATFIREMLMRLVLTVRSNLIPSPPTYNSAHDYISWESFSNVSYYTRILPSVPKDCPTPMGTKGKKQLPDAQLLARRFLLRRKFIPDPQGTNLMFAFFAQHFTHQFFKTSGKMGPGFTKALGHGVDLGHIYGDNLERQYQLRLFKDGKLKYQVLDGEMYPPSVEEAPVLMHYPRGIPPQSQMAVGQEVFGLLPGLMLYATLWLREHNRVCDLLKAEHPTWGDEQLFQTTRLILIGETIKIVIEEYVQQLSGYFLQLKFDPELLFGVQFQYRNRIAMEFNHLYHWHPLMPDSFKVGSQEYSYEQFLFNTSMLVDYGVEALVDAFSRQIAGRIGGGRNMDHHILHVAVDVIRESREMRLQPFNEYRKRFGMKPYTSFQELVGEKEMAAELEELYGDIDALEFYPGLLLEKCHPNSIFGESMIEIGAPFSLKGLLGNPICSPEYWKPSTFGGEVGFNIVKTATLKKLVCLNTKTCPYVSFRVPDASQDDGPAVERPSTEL

Structure (SMILES)	inhibition [1]	Activity (Mus musculus [2])	inhibition in vivo at 100 mg/kg (Mus musculus [3]) [%]	inhibition [4]	inhibition in vivo at 100 mg/kg (Mus musculus [5]) [%]	inhibition in vivo at 100 mg/kg (Mus musculus [6]) [%]	inhibition [7]	inhibition in vivo at 100 mg/kg (Mus musculus [8]) [%]	inhibition in vivo at 100 mg/kg (Mus musculus [9]) [%]	inhibition (Mus musculus [3])	inhibition (Mus musculus [6])	inhibition (Mus musculus [8])	inhibition (Mus musculus [9])	inhibition (Mus musculus [5])
O=C(Cn1c(=O)sc2cc(C(=O)c3ccccc3Cl)ccc21)Nc1cccc(Cl)c1	7.27%	Non-toxic	30.4	35%	41.8	31.3	inactive	22	23.9					
O=C(Cn1c(=O)sc2cc(C(=O)c3ccccc3Cl)ccc21)Nc1ccccn1	45.2%	Non-toxic		3%	15.5		28.9%			inactive	inactive	inactive	inactive	
O=C(Cn1c(=O)sc2cc(C(=O)c3ccccc3F)ccc21)Nc1ccccn1	17.8%	Non-toxic		inactive	18.7		inactive			inactive	inactive	inactive	inactive	
O=C(Cn1c(=O)sc2cc(C(=O)c3ccccc3Cl)ccc21)Nc1ccccc1	3.42%	Non-toxic	10.9	16%	20.6	10.5	inactive	11	5.3					
Cc1cccc(NC(=O)Cn2c(=O)sc3cc(C(=O)c4ccccc4)ccc32)n1	inactive	Toxic		26%			inactive			inactive	inactive	inactive	inactive	inactive
Cc1cccc(NC(=O)Cn2c(=O)sc3cc(C(=O)c4ccccc4Cl)ccc32)n1	9.84%	Non-toxic		28%	15.9		2.21%			inactive	inactive	inactive	inactive	
O=C(Cn1c(=O)sc2cc(C(=O)c3ccccc3Cl)ccc21)Nc1ccc(Cl)cc1	39.2%	Non-toxic	31.9	inactive	47.3	33.2	53.1%	28.4	25.8					
O=C(Cn1c(=O)sc2cc(C(=O)c3ccccc3F)ccc21)Nc1ccccc1	5.61%	Non-toxic	22.6	24%	26.8	19.5	inactive	23.5	11.3					
Cc1ccnc(NC(=O)Cn2c(=O)sc3cc(C(=O)c4ccccc4F)ccc32)c1	1.98%	Toxic	6.1	19%	27	4.6	inactive	6.8	2.8					
Cc1ccnc(NC(=O)Cn2c(=O)sc3cc(C(=O)c4ccccc4Cl)ccc32)c1	10.1%	Toxic	5.1	11%	8.1	3.7	inactive	3.5	3.8					
Cc1cccc(NC(=O)Cn2c(=O)sc3cc(C(=O)c4ccccc4F)ccc32)n1	28%	Non-toxic	1.2	20%	22.2	2.3	12.6%	3.7	1.7					
O=C(Cn1c(=O)sc2cc(C(=O)c3ccccc3F)ccc21)Nc1cccc(Cl)c1	20.5%	Non-toxic	25.5	31%	49.9	28.2	19.3%	18.4	15.8					
O=C(Cn1c(=O)sc2cc(C(=O)c3ccccc3)ccc21)Nc1cccc(Cl)c1	inactive	Non-toxic	10.8	46%	23.1	8	inactive	10.7	5.6					
O=C(Cn1c(=O)sc2cc(C(=O)c3ccccc3)ccc21)Nc1ccccc1	40.4%	Non-toxic	12.5	6%	17.3		1.47%	3.5	3.6					
Cc1ccnc(NC(=O)Cn2c(=O)sc3cc(C(=O)c4ccccc4)ccc32)c1	50%	Toxic		11%			6.83%			inactive	inactive	inactive	inactive	inactive
O=C(Cn1c(=O)sc2cc(C(=O)c3ccccc3)ccc21)Nc1ccccn1	49.8%	Non-toxic		inactive			inactive			inactive	inactive	inactive	inactive	inactive
CC(=O)Oc1ccccc1C(=O)O [ASPIRIN]		Toxic			50.1									
CS(=O)(=O)c1ccc(-c2cc(Br)sc2-c2ccc(F)cc2)cc1	100%													
O=C(Cn1c(=O)sc2cc(C(=O)c3ccccc3)ccc21)Nc1ccc(Cl)cc1	inactive	Non-toxic	22.9	inactive	26.5	16.5	23.1%	15.2	6.6					
O=C(Cn1c(=O)sc2cc(C(=O)c3ccccc3F)ccc21)Nc1ccc(Cl)cc1	10.4%	Non-toxic	30.3	inactive	54.3	31.7	inactive	29	25.9					
